Reference: ChEMBL document CHEMBL2321731, “Structure-Based Design of Irreversible Human KAT II Inhibitors: Discovery of New Potency-Enhancing Interactions” (ACS Med Chem Lett, 2013)
Active and inactive are the calls of the source. No cut-off for these calls is given here.

Key:
[1] = target: T1, Kynurenine--oxoglutarate transaminase 1 (Homo sapiens, UniProt Q16773); test: Inhibition of human KAT1 using L-kynurenine as substrate measured after 16 hrs by SpectraMax plate reader analysis
T1 sequence (Q16773 whole entry): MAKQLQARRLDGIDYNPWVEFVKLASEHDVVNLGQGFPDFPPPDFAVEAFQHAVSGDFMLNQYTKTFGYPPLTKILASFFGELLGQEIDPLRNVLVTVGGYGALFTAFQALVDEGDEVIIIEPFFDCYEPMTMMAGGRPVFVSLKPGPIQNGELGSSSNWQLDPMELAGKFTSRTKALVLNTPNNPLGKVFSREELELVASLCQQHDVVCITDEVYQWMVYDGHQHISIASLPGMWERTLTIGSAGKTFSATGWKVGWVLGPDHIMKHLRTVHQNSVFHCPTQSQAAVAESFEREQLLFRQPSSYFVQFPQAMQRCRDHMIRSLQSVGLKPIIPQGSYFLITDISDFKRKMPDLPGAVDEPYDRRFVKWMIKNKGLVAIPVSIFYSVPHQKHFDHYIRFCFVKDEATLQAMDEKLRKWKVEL

Brain [2] = test: AUC in Sprague-Dawley rat brain at 10 mg/kg, sc by LC-MS/MS analysis; type: ADME, organism-based; parameters: dose 10 mg/kg, route subcutaneous; settings: in vivo
[3] = target: T2, Kynurenine/alpha-aminoadipate aminotransferase, mitochondrial (Homo sapiens, UniProt Q8N5Z0); test: Irreversible inhibition of human KAT2 using L-kynurenine as substrate measured every 5 mins over 16 hrs by SpectraMax plate reader analysis
[4] = target: Kynurenine--oxoglutarate transaminase 3 (Homo sapiens, UniProt Q6YP21); test: Inhibition of human KAT3 using L-kynurenine as substrate measured after 24 hrs by SpectraMax plate reader analysis
[5] = target: T2, Kynurenine/alpha-aminoadipate aminotransferase, mitochondrial; test: Inhibition of human KAT2 using L-kynurenine as substrate measured after 15-20 hrs by SpectraMax plate reader analysis
Target sequence in this assay (Q8N5Z0 whole entry): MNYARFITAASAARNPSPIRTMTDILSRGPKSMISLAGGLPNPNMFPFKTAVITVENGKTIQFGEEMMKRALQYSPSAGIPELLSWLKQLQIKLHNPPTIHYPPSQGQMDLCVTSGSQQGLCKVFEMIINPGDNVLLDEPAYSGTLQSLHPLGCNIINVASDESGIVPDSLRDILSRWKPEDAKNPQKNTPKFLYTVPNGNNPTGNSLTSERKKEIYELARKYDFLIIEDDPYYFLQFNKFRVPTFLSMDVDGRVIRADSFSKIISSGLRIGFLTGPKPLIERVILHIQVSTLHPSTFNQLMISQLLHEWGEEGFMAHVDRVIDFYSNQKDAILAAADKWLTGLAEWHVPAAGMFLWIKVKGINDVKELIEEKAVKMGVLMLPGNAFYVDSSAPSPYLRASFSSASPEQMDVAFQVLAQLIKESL

[6] = target: T2, Kynurenine/alpha-aminoadipate aminotransferase, mitochondrial; test: Ratio of Kinact to Ki for human KAT2 using L-kynurenine as substrate by SpectraMax plate reader analysis
Target sequence in this assay (Q8N5Z0 30-425 limits assumed): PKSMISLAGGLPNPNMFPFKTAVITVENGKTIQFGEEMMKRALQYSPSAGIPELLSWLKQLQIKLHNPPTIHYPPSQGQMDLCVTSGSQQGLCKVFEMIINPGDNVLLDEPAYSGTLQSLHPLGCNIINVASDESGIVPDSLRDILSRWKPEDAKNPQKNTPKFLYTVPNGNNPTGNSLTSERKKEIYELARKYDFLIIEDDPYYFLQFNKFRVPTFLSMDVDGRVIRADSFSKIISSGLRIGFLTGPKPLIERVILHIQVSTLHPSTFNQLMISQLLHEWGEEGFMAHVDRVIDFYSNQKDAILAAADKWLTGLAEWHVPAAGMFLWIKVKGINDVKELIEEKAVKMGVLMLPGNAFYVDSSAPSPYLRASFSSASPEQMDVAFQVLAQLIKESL

[7] = Unbound fraction in Sprague-Dawley rat brain at 10 mg/kg, sc by equilibrium dialysis method; type: ADME, organism-based; parameters: dose 10 mg/kg, route subcutaneous
Brain [8] = test: fAUC in Sprague-Dawley rat brain at 10 mg/kg, sc by equilibrium dialysis method; type: ADME, organism-based; parameters: dose 10 mg/kg, route subcutaneous; settings: in vivo
Brain [9] = test: Ratio of hydroxamate fAUC to compound fAUC in Sprague-Dawley rat brain at 10 mg/kg, sc by equilibrium dialysis method; type: ADME, organism-based; parameters: dose 10 mg/kg, route subcutaneous; settings: in vivo
[10] = target: Kynurenine/alpha-aminoadipate aminotransferase, mitochondrial (Rattus norvegicus) (UniProt Q64602); test: Ratio of Kinact to Ki for rat KAT2 using L-kynurenine as substrate by SpectraMax plate reader analysis
Rattus norvegicus = test: Decrease in extracellular KYNA level in Sprague-Dawley rat prefrontal cortex at 10 mg/kg, sc measured for 4 hrs by microdialysis method; type: functional, organism-based; parameters: dose 10 mg/kg
[11] = system: Kynurenine/alpha-aminoadipate aminotransferase, mitochondrial (Homo sapiens), Q8N5Z0 [K240S,F241G]; test: Binding affinity to C-terminal hexa histidine tagged full length human KAT2 K240S/F241G mutant harboring C-terminal thrombin cleavage site at 1 mM after 2 hrs by X-ray crystallography in presence of 2 mM PLP
Chain of Kynurenine/alpha-aminoadipate aminotransferase, mitochondrial (Homo sapiens), Q8N5Z0 [K240S,F241G] (Q8N5Z0 whole entry K240S/F241G): as the sequence (Q8N5Z0 whole entry) above, with K240S, F241G counted along it

Chain of Kynurenine/alpha-aminoadipate aminotransferase, mitochondrial (Rattus norvegicus) (Q64602 30-425 limits assumed): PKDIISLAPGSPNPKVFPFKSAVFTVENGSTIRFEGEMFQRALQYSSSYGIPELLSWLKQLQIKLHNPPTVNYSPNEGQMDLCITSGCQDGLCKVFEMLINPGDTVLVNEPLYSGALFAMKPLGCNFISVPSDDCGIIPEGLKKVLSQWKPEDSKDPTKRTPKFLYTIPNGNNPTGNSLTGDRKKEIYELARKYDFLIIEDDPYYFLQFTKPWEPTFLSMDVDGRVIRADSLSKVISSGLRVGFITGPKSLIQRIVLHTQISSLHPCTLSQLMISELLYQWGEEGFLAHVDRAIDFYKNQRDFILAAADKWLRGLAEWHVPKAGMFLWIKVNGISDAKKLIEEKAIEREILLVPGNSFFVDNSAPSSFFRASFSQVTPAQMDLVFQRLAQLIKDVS
Chain of Kynurenine--oxoglutarate transaminase 3 (Q6YP21 whole entry): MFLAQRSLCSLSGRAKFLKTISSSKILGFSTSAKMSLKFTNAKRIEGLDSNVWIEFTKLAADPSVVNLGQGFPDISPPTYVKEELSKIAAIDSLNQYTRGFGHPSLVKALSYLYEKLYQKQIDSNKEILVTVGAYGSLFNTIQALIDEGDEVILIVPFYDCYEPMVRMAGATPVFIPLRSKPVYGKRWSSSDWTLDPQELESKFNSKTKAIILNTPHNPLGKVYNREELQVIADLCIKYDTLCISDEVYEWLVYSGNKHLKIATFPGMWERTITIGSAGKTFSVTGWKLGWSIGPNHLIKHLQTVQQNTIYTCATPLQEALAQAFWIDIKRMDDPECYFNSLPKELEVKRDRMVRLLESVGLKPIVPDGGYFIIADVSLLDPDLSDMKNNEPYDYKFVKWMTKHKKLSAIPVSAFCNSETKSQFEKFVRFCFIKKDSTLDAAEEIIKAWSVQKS

IC50 [1]	AUC (Brain [2])	Ki [3]	Kinact [3]	IC50 [4]	IC50 [5]	Ratio [6]	fraction unbound [7]	fAUC (Brain [8])	Ratio (Brain [9])	Ratio [10]	Activity [11]	Compound	inhibition (Rattus norvegicus)
2.04 µM	6602 ng·h/g	7.1 nM	0.0108 min⁻¹	1.23 µM	23 nM	26800	0.0099	65 ng·h/g	9	9070	Active	N[C@H]1Cc2cc(Oc3ccccc3)ccc2N(O)C1=O	Active
15.3 µM	–	7.7 nM	0.0137 min⁻¹	6.4 µM	–	31700	–	–	–	1840	Active	COc1ccc2c(c1)N(O)C(=O)[C@@H](N)C2	–
30.4 µM	1486 ng·h/g	14.2 nM	0.0156 min⁻¹	9.04 µM	–	18500	0.393	584 ng·h/g	–	573	Active	N[C@H]1Cc2ccccc2N(O)C1=O	Active
